“Also recorded” adds a separate entry of the source.
Tests used:
angiogenesis = test: Matrigel deposit implant test for angiogenic activity (acceleration or inhibition), FGF1-induced; type: in vivo, mice; parameters: key to top score seen in Matrigel deposits: no + sign would yield a value of 0, as in A in FIG. 13; B in FIG. 13 would yield a score of +++; ++++: 0 to 4 plus (+) scale; settings: for top score seen in Matrigel deposits: 0 to 4 plus (+) scale, only top level scores of the experiment
Text: Matrigel deposits were surgically implanted on both sides of 4 mice per treatment yielding a possible 8 samples per treatment. Matrigel is a polymeric substance that appears to be relatively inert in animals and it can serve as a matrix that allows experimentation in vivo on many different difficult-to-study-processes. Prior to implantation, the Matrigel was allowed to imbibe fibroblast growth factor 1 (FGF1). This protein is a powerful inducer of angiogenesis and its presence guarantees that sufficient activity will be observed within the allotted time period of the experiment. Therefore, any inhibition of angiogenesis is likely to be a real phenomenon as the experiment has been set to heavily favor the angiogenic process. Angiogenesis occurs by day 14 and beginning Day 1 (Day 0=day of implantation), mice were injected IP daily with 20 μg of peptide in 100 μl of normal saline. The animals were sacrificed on Day 14, and each Matrigel deposit divided longitudinally and fixed in 10% buffered formalin. One of the halves of each Matrigel deposit was then sectioned. Read-out for this experiment was via histology, with semi-quantitative/qualitative counting of migration of cells and their subsequent assembly of lumenal structures within the Matrigel. This method allows us to observe the full physiologic spectrum of effects, and was useful in delineating trends. […] In FIG. 13, A represents what a section of a Matrigel gel deposit looks like under the microscope soon after surgical implantation. The sample in B is derived from the control at the conclusion of the experiment. Intense activity is present with numerous cells attaching to the surface of the Matrigel. Cells begin to penetrate the deposit and organize into discrete structures that coalesce to form the beginning of tubes twisting and branching in many directions. These venules eventually connect with the system carrying blood and it is possible to see red cells and lymphocytes within them. This process is called “arborization”, derived from the fact that the angiogenic process most closely resembles the growth of roots and branches of trees. All but two of the peptide treatments looked, more or less, like B (all the peptides of Table 1 were tested). In C, a typical sample from the peptide C-1 (SEQ ID NO: 24) treatment is shown. […] Consequently, there were far fewer cells and cellular structures inside of the Matrigel. […] There were large regions of Matrigel that had no visibly associated structures and few single cells, including on the periphery, while other regions had some limited activity.
This system ranks each sample using a 0 to 4 plus (+) scale. Thus, B in FIG. 13 would yield a score of +++ while no + sign would yield a value of 0, as in A in FIG. 13. In Table 3 the data is modified to a numerical form and plotted averages are shown.

[1] = tested on: Feline Immunodeficiency virus FIV; test: Peptide treatment of a lion infected with FIV (CD4+/CD8+ cell counts); type: in vivo; settings: weekly 70 mg I.M injections
Text: Nasty is a male lion in North Carolina Zoological Park. He was diagnosed to suffer Feline Immunodeficiency virus FIV. FIV attacks the immune system of cats, much like the human immunodeficiency virus (HIV) attacks the immune system of human beings. FIV infects many cell types in its host, including CD4+ and CD8+T lymphocytes, B lymphocytes, and macrophages. FIV eventually leads to debilitation of the immune system in its feline hosts by the infection and exhaustion of T-helper (CD4+) cells.
Nasty was treated weekly with 70 mg I.M injections of JC15-10N.

arthritis = test: Treatment of a patient with arthritis (x-ray of ankle joints); type: in vivo; settings: 10 mg subcutaneous once a week for one month, then once a month
Description: A patient with arthritis was treated by subcutaneous injection of 10 mg once a week for one month and then once a month for maintenance doses. A visible indication of arthritis is calcification of joints.

tumors = test: In vivo anti-tumor activity of injected peptide in animal tumor models
[2] = mice, 20 μg peptide IP daily, Day 14 histology

**Q.** For FAKKFAKFAF [JC15-10C], which “angiogenic / anti-angiogenic activity in Matrigel deposits (in words)” value (shortened to “angiogenic / anti-angiogenic activity”) (angiogenesis; [2]) is on record?
**A.** inactive

**Q.** Which results are given for FAKKFAKKFK [JC15-10N]?
**A.** angiogenic / anti-angiogenic activity in Matrigel deposits (in words) (angiogenesis; [2]): possesses anti-angiogenic activity; absolute CD4+ cell counts [1]: stabilized the CD4+ cell counts; absolute CD8+ cell counts [1]: the cell counts began to rise; calcification of the ankle joints (arthritis): disappeared

**Q.** Which “top score seen in Matrigel deposits” value (angiogenesis) does the source give for FAKKFAKKFKKF [JC15-12N] here?
**A.** ++++

**Q.** What about the “angiogenic / anti-angiogenic activity” value (angiogenesis; [2]) of the same sequence?
**A.** levels of activity higher than the control; also recorded: cannot exert an anti-angiogenic effect; also recorded: does not inhibit angiogenesis

**Q.** FAKKFAKKFKKFAKKFAK [JC15-18N] was tested. Which “angiogenic / anti-angiogenic activity” value (angiogenesis; [2]) did it give?
**A.** levels of activity higher than the control; also recorded: cannot exert an anti-angiogenic effect

**Q.** Which “% Diff.” value (angiogenesis; difference of mean score from Control (2.50)) does the source give for FAKKFAKKFKKFAKKFAKFAFAF [JC15] here?
**A.** 4.00%

**Q.** What about the “angiogenic activity score, Mean” value (angiogenesis; mean of samples, mice, 20 μg peptide IP daily, Day 14, 0 to 4 plus scale) of the same sequence?
**A.** 2.60

**Q.** And the “angiogenic / anti-angiogenic activity” value (angiogenesis; [2])?
**A.** closer to the control; also recorded: cannot exert an anti-angiogenic effect

**Q.** And the “angiogenic activity score, Sample 1” value (angiogenesis; mice, FGF1-imbibed Matrigel, 20 μg peptide IP daily, Day 14 histology, 0 to 4 plus scale, sample 1)?
**A.** 3

**Q.** What about the “angiogenic activity score, Sample 2” value (angiogenesis; mice, FGF1-imbibed Matrigel, 20 μg peptide IP daily, Day 14 histology, 0 to 4 plus scale, sample 2) of the same sequence?
**A.** 2

**Q.** And the “angiogenic activity score, Sample 3” value (angiogenesis; mice, FGF1-imbibed Matrigel, 20 μg peptide IP daily, Day 14 histology, 0 to 4 plus scale, sample 3)?
**A.** 3

**Q.** What about the “angiogenic activity score, Sample 4” value (angiogenesis; mice, FGF1-imbibed Matrigel, 20 μg peptide IP daily, Day 14 histology, 0 to 4 plus scale, sample 4) of the same sequence?
**A.** 2

**Q.** What about the “angiogenic activity score, Sample 5” value (angiogenesis; mice, FGF1-imbibed Matrigel, 20 μg peptide IP daily, Day 14 histology, 0 to 4 plus scale, sample 5) of the same sequence?
**A.** 3

**Q.** What about the “effect on tumors, peptide injected directly into the tumor” value (tumors; a few injections over a period of several days) of the same sequence?
**A.** tumors are permanently eliminated

**Q.** And the “effect on tumors, peptide injected in a site removed from the tumor” value (tumors; systemic activity, several animal tumor models, in some cases little activity)?
**A.** most of the tumors also disappeared

**Q.** Which “angiogenic / anti-angiogenic activity” value (angiogenesis; [2]) does the source give for IVRRADRAAVPIVNLKDELL [C-1] here?
**A.** far fewer cellular associations; also recorded: possess anti-angiogenic activity

**Q.** For KKFKKFAKKFAKFAF [JC15-15C], which “top score seen in Matrigel deposits” value (angiogenesis) is on record?
**A.** ++++

**Q.** And the “angiogenic / anti-angiogenic activity” value (angiogenesis; [2])?
**A.** levels of activity higher than the control; also recorded: cannot exert an anti-angiogenic effect

Reference: patent publication US20140329753A1, “Angiogenic active lytic peptides” (priority 2013, published 2014)
